Source: patent US8785457B2 (Cellzome Limited, priority 2009, dated 2014)

Legend:
Type in all cases: binding
[1] = molecular target: T1, DNA-dependent protein kinase (DNA-PK) (Homo sapiens, UniProt P78527); experiment: kinobeads assay, DNA-PK; conditions: kinobeads assay, Table 6; read-out: Inhibition values (IC50) DNAPK
T1 construct: endogenous in cells; host or cells: Jurkat, clone E6-1 (ATCC TIB-152) cell lysate
In short: (§1)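 Competitive binding in Jurkat cell lysate (5 mg/mL protein) against beads carrying an immobilized phenylmorpholin-chromen ligand, in DP buffer pH 7.4 with NP40, DTT and NaF. Bead-bound kinases were eluted and quantified by antibody dot blot with infrared detection, and IC50 was taken from dose-response curves of a 1:3 dilution series.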

PI3 Kgamma (PI3 Kg) = molecular target: T2, PI3 Kgamma (PI3 Kg) (Homo sapiens, UniProt P48736); experiment: kinobeads assay, PI3Kgamma; conditions: kinobeads assay, Table 6; read-out: Inhibition values (IC50) PI3Kg
T2 construct: endogenous in cells; host or cells: cell lysate
In short: (§2)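 Competitive pull-down in cell lysate: compound (various conc.) + phenylmorpholin-chromen affinity beads, incubate, separate beads, elute. Multiplexed immunodetection of bound kinases; dose-response fit → IC50.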

PI3Kalpha (PI3Ka) = molecular target: T3, PI3Kalpha (PI3Ka) (Homo sapiens, UniProt P42336); experiment: kinobeads assay, PI3Kalpha; conditions: kinobeads assay, Table 6; for IC50: read-out: Inhibition values (IC50) PI3Ka
T3 construct: endogenous in cells; host or cells: cell lysate
In short: as §2

PI3K delta (PI3 Kd) = molecular target: T4, PI3K delta (PI3 Kd) (Homo sapiens, UniProt O00329); experiment: kinobeads assay, PI3K delta; conditions: kinobeads assay, Table 6; read-out: Inhibition values (IC50) PI3Kd
T4 construct: endogenous in cells; host or cells: Jurkat, clone E6-1 (ATCC TIB-152) cell lysate
In short: as §1

T4 sequence (O00329 whole entry): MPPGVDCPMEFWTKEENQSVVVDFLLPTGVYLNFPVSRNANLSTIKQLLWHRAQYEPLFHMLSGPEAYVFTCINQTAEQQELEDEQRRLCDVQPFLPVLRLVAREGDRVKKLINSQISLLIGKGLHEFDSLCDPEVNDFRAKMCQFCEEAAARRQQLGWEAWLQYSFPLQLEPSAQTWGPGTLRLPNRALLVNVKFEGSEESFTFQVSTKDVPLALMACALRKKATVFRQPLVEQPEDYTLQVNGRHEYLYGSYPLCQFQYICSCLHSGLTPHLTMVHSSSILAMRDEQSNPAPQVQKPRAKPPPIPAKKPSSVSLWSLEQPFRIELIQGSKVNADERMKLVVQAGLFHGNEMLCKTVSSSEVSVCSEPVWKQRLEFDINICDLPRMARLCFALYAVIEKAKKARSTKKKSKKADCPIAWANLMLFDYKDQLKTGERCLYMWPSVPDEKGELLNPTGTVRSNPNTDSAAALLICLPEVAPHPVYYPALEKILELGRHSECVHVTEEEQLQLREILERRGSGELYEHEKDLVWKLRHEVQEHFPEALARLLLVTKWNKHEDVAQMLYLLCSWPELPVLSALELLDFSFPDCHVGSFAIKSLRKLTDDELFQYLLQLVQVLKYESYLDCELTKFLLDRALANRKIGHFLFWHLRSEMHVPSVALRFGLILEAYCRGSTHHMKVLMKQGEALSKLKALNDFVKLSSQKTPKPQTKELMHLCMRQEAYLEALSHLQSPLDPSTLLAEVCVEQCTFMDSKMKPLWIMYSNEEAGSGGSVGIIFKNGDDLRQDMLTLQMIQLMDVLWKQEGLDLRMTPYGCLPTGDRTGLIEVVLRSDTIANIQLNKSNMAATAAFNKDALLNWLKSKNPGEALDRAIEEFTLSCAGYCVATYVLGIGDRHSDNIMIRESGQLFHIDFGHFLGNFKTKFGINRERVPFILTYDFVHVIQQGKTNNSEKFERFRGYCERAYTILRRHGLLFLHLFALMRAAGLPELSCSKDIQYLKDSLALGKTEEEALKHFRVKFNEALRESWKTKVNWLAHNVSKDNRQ
T4 sequence (P27986 whole entry partner): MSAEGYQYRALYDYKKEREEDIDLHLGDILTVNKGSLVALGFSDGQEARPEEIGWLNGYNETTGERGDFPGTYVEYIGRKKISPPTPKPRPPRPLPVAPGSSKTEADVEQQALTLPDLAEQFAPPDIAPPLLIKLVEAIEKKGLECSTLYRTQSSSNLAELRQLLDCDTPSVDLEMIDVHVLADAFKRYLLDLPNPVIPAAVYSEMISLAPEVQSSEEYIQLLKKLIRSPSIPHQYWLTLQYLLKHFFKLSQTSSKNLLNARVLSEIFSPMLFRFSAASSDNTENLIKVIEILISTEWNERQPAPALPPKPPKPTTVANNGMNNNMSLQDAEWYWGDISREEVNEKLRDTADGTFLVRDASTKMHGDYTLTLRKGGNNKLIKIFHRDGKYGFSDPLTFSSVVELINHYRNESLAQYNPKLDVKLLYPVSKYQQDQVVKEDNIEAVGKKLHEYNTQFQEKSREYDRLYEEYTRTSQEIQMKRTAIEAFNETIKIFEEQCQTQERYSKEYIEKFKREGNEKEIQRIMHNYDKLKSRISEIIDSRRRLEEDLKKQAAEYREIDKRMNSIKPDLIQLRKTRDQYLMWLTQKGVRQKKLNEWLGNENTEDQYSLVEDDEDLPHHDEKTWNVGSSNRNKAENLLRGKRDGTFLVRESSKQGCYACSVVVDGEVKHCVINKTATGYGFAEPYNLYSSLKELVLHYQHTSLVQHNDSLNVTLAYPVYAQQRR
T3 sequence (P42336 whole entry): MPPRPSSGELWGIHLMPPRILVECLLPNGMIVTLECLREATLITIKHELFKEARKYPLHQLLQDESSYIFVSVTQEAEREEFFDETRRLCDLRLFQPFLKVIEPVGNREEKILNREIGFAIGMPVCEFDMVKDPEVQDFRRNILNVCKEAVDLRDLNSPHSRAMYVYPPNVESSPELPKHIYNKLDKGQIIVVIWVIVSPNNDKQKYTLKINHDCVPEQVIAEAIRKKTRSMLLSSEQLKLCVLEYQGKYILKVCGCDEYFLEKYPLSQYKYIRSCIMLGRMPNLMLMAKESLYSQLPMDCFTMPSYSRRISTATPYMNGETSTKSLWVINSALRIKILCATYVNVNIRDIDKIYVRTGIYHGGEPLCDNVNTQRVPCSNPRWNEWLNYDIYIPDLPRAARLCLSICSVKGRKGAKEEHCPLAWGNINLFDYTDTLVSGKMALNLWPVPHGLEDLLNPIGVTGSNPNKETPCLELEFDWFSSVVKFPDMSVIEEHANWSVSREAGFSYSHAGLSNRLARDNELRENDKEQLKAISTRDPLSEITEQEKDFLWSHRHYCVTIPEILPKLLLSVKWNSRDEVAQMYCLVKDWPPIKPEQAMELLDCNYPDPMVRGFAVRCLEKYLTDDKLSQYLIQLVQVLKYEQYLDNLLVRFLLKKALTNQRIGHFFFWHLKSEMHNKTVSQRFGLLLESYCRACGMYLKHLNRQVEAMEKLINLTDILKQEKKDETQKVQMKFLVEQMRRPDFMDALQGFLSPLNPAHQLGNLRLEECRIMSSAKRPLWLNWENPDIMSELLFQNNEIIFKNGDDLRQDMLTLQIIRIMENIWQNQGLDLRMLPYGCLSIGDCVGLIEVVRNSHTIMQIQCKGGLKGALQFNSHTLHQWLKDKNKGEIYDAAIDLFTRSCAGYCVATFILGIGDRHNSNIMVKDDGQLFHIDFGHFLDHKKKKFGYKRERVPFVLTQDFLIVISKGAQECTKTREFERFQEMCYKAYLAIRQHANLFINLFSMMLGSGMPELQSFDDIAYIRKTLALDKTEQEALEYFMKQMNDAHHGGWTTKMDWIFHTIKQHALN
T3 sequence (P27986 whole entry partner): as the sequence (P27986 whole entry partner) above
T2 sequence (P48736 whole entry): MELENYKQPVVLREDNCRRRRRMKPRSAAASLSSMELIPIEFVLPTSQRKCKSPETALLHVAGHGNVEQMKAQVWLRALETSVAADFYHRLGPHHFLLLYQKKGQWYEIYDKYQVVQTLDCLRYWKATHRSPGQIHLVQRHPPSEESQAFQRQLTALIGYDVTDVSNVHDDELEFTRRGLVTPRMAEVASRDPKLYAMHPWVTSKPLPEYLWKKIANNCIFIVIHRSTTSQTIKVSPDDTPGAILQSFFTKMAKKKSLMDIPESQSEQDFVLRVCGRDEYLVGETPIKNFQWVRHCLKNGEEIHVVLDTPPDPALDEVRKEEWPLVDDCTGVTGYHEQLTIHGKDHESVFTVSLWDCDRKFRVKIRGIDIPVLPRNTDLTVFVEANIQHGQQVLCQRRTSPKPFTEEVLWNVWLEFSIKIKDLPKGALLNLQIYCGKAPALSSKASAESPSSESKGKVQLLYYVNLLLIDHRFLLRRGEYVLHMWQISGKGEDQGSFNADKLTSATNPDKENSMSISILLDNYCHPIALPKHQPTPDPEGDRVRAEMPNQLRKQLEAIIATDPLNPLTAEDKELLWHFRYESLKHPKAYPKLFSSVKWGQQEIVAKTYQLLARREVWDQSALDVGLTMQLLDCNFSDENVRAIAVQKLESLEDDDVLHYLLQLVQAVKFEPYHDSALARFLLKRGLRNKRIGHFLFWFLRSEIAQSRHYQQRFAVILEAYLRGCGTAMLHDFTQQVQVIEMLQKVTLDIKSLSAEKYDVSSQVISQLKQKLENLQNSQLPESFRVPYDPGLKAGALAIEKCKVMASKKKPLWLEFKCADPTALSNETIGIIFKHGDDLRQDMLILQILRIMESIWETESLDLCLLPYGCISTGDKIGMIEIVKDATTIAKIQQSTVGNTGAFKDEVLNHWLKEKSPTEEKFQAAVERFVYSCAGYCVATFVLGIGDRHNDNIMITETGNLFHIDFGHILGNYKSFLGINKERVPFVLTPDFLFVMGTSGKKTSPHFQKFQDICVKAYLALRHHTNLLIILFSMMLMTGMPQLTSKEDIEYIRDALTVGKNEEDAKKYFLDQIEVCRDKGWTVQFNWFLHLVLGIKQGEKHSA

Row | Structure (SMILES) | IC50 [1] [µM] | IC50 (PI3 Kgamma (PI3 Kg)) [µM] | IC50 (PI3Kalpha (PI3Ka)) [µM] | IC50 (PI3K delta (PI3 Kd)) [µM] | Inhibition values (IC50) PI3Ka (PI3Kalpha (PI3Ka))
1 | CCNC(=O)Nc1ccc(-c2nc3c(c(N4CCOC[C@@H]4C)n2)CCN(C(=O)OC)C3)cc1 [Example 81, (S)-methyl 2-(4-(3-ethylureido)phenyl)-4-(3-methylmorpholino)-5,6-dihydropyrido[3,4-d]pyrimidine-7(8H)-carboxylate] | > 10 | > 10 |  | > 10 | D (D >10 μM)
2 | COC(=O)N1Cc2nc(-c3ccc(NC(=O)NC4CC4)cc3)nc(N3CCOC[C@@H]3C)c2C1 [Example 86, (S)-methyl 2-(4-(3-cyclopropylureido)phenyl)-4-(3-methylmorpholino)-5H-pyrrolo[3,4-d]pyrimidine-6(7H)-carboxylate] | > 10 | > 10 |  | > 10 | D (D >10 μM)
3 | CCNC(=O)Nc1ccc(-c2nc3c(c(N4CCOC[C@@H]4C)n2)CCN(C(=O)NCC)C3)cc1 [Example 87, (S)—N-ethyl-2-(4-(3-ethylureido)phenyl)-4-(3-methylmorpholino)-5,6-dihydropyrido[3,4-d]pyrimidine-7(8H)-carboxamide] | > 10 | > 10 |  | > 10 | D (D >10 μM)
4 | CCNC(=O)N1CCc2c(nc(-c3ccc(NC(=O)NC4CC4)cc3)nc2N2CCOC[C@@H]2C)C1 [Example 88, (S)-2-(4-(3-cyclopropylureido)phenyl)-N-ethyl-4-(3-methylmorpholino)-5,6-dihydropyrido[3,4-d]pyrimidine-7(8H)-carboxamide] | > 10 | > 10 |  | > 10 | D (D >10 μM)
5 | CCNC(=O)Nc1ccc(-c2nc3c(c(N4CCOC[C@@H]4C)n2)CN(C(=O)OCC)C3)cc1 [Example 90, (S)-ethyl 2-(4-(3-ethylureido)phenyl)-4-(3-methylmorpholino)-5H-pyrrolo[3,4-d]pyrimidine-6(7H)-carboxylate] | > 10 | > 10 |  | > 10 | D (D >10 μM)
6 | CCNC(=O)Nc1ccc(-c2nc3c(c(N4CCOCC4)n2)CCN(C(=O)OCC)C3)cc1 [Example 96, ethyl 2-(4-(3-ethylureido)phenyl)-4-morpholino-5,6-dihydropyrido[3,4-d]pyrimidine-7(8H)-carboxylate] | > 10 | > 10 |  | > 10 | D (D >10 μM)
7 | CCNC(=O)Nc1ccc(-c2nc3c(c(N4CCOCC4)n2)CCN(C(=O)C(C)(C)C)C3)cc1 [Example 98, 1-ethyl-3-(4-(4-morpholino-7-pivaloyl-5,6,7,8-tetrahydropyrido[3,4-d]pyrimidin-2-yl)phenyl)urea] | > 10 | > 10 | 1 to 10 | > 10 | 
8 | CCNC(=O)Nc1ccc(-c2nc3c(c(N4CCOC[C@@H]4C)n2)CCN(C(=O)CO)C3)cc1 [Example 102, (S)-1-ethyl-3-(4-(7-(2-hydroxyacetyl)-4-(3-methylmorpholino)-5,6,7,8-tetrahydropyrido[3,4-d]pyrimidin-2-yl)phenyl)urea] | > 10 | > 10 |  | > 10 | D (D >10 μM)
9 | CCNC(=O)Nc1ccc(-c2nc3c(c(N4CCOC[C@@H]4C)n2)CN(C(=O)OCC)C3)cc1F [Example 103, (S)-ethyl-2-(4-(3-ethylureido)-3-fluorophenyl)-4-(3-methylmorpholino)-5H-pyrrolo[3,4-d]pyrimidine-6(7H)-carboxylate] | > 10 | > 10 |  | > 10 | D (D >10 μM)
10 | CCNC(=O)Nc1ncc(-c2nc3c(c(N4CCOC[C@@H]4C)n2)CCN(C)C3)s1 [Example 106, (S)-1-ethyl-3-(5-(7-methyl-4-(3-methylmorpholino)-5,6,7,8-tetrahydropyrido[3,4-d]pyrimidin-2-yl)thiazol-2-yl)urea] | > 10 | > 10 |  | > 10 | D (D >10 μM)

Now from value to compound:

Row | IC50 [1] [µM] | IC50 (PI3 Kgamma (PI3 Kg)) [µM] | IC50 (PI3Kalpha (PI3Ka)) [µM] | IC50 (PI3K delta (PI3 Kd)) [µM] | Inhibition values (IC50) PI3Ka (PI3Kalpha (PI3Ka)) | Structure (SMILES)
11 | > 10 | 1 to 10 | 1 to 10 | > 10 |  | C[C@H]1COCCN1c1nc(-c2ccc(NC(=O)Nc3cccc(O)n3)cc2)nc2c1CN(C)C2 [Example 80, (S)-1-(6-hydroxypyridin-2-yl)-3-(4-(6-methyl-4-(3-methylmorpholino)-6,7-dihydro-5H-pyrrolo[3,4-d]pyrimidin-2-yl)phenyl)urea]
12 | > 10 | > 10 |  | > 10 | D (D >10 μM) | COC(=O)N1CCc2c(nc(-c3ccc(NC(=O)NC4CC4)cc3)nc2N2CCOC[C@@H]2C)C1 [Example 83, (S)-methyl 2-(4-(3-cyclopropylureido)phenyl)-4-(3-methylmorpholino)-5,6-dihydropyrido[3,4-d]pyrimidine-7(8H)-carboxylate]
13 | > 10 | > 10 | 1 to 10 | > 10 |  | C[C@H]1COCCN1c1nc(-c2ccc(NC(=O)Nc3ccn(C)n3)cc2)nc2c1CN(C)C2 [Example 84, (S)-1-(1-methyl-1H-pyrazol-3-yl)-3-(4-(6-methyl-4-(3-methylmorpholino)-6,7-dihydro-5H-pyrrolo[3,4-d]pyrimidin-2-yl)phenyl)urea]
14 | > 10 | > 10 |  | > 10 | D (D >10 μM) | CCNC(=O)Nc1ccc(-c2nc3c(c(N4CCOC[C@@H]4C)n2)CN(C)C3)cc1F [Example 85, (S)-1-ethyl-3-(2-fluoro-4-(6-methyl-4-(3-methylmorpholino)-6,7-dihydro-5H-pyrrolo[3,4-d]pyrimidin-2-yl)phenyl)urea]
15 | 1 to 10 | > 10 |  | > 10 | D (D >10 μM) | CCNC(=O)Nc1ccc(-c2nc3c(c(N4CCOC[C@@H]4C)n2)CN(C(=O)OC)C3)cc1 [Example 89, (S)-methyl 2-(4-(3-ethylureido)phenyl)-4-(3-methylmorpholino)-5H-pyrrolo[3,4-d]pyrimidine-6(7H)-carboxylate]
16 | > 10 | > 10 |  | > 10 | D (D >10 μM) | CCNC(=O)Nc1ccc(-c2nc3c(c(N4CCOC[C@@H]4C)n2)CCN(C(=O)Cc2cccnc2)C3)cc1 [Example 91, (S)-1-ethyl-3-(4-(4-(3-methylmorpholino)-7-(2-(pyridin-3-yl)acetyl)-5,6,7,8-tetrahydropyrido[3,4-d]pyrimidin-2-yl)phenyl)urea]
17 | > 10 | > 10 |  | > 10 | D (D >10 μM) | CCNC(=O)Nc1ccc(-c2nc3c(c(N4CCOCC4)n2)CCN(C)C3)cc1 [Example 93, 1-ethyl-3-(4-(7-methyl-4-morpholino-5,6,7,8-tetrahydropyrido[3,4-d]pyrimidin-2-yl)phenyl)urea]
18 | > 10 | > 10 | 1 to 10 | > 10 |  | CCNC(=O)Nc1ccc(-c2nc3c(c(N4CCOCC4)n2)CCN(C(=O)NCC)C3)cc1 [Example 94, N-ethyl-2-(4-(3-ethylureido)phenyl)-4-morpholino-5,6-dihydropyrido[3,4-d]pyrimidine-7(8H)-carboxamide]
19 | 1 to 10 | > 10 | 1 to 10 | 1 to 10 |  | CCNC(=O)Nc1ccc(-c2nc3c(c(N4CCOCC4)n2)CCN(C(C)=O)C3)cc1 [Example 97, 1-(4-(7-acetyl-4-morpholino-5,6,7,8-tetrahydropyrido[3,4-d]pyrimidin-2-yl)phenyl)-3-ethylurea]
20 | > 10 | > 10 | 1 to 10 | > 10 |  | CCNC(=O)Nc1ccc(-c2nc3c(c(N4CCOCC4)n2)CN(C(=O)C(C)(C)C)C3)cc1 [Example 100, 1-ethyl-3-(4-(4-morpholino-6-pivaloyl-6,7-dihydro-5H-pyrrolo[3,4-d]pyrimidin-2-yl)phenyl)urea]
21 | > 10 | > 10 |  | > 10 | D (D >10 μM) | CCOC(=O)N1Cc2nc(-c3ccc(NC(=O)NCCO)c(F)c3)nc(N3CCOC[C@@H]3C)c2C1 [Example 104, (S)-ethyl-2-(3-fluoro-4-(3-(2-hydroxyethyl)ureido)phenyl)-4-(3-methylmorpholino)-5H-pyrrolo[3,4-d]pyrimidine-6(7H)-carboxylate]
22 | > 10 | > 10 |  | > 10 | D (D >10 μM) | CCOC(=O)N1Cc2nc(-c3ccc(NC(=O)NC4CC4)c(F)c3)nc(N3CCOC[C@@H]3C)c2C1 [Example 105, (S)-ethyl 2-(4-(3-cyclopropylureido)-3-fluorophenyl)-4-(3-methylmorpholino)-5H-pyrrolo[3,4-d]pyrimidine-6(7H)-carboxylate]
23 | > 10 | > 10 |  | > 10 | D (D >10 μM) | CCNC(=O)Nc1ccc(-c2nc3c(c(N4CCOC[C@@H]4C)n2)CN(C(=O)OCC)CC3)cc1 [Example 107, (S)-ethyl 2-(4-(3-ethylureido)phenyl)-4-(3-methylmorpholino)-7,8-dihydropyrido[4,3-d]pyrimidine-6(5H)-carboxylate]
